Experimental data reported in patent publication US6060481A, “Method for improving insulin sensitivity using an adenosine receptor antagonist” (priority 1999, dated 2000).

What was measured:
[1] = tested on: protein tyrosine phosphatases in WGA eluates; conditions: 1 mM in the buffers
Description: The procedure was modified by decreasing the length of autoradiographic exposure to increase sensitivity. ^32 P-poly Glu:Tyr4:1 substrate was incorporated into the 100% SDS polyacrylamide gel prior to polymerization. WGA eluates which were run on the gels were concentrated on Centricon filters to approximately 2 mg/ml. Aliquots (100 μg) were run on the gels. Gels were washed overnight to remove SDS. The proteins were first fully denatured in 6M guanidine HCl and then, after electrophoresis, renatured by incubation in phosphatase assay buffers containing 0.04% Tween® 40 and high concentrations of dithiothreitol (DTT). Next, the gels were dried and exposed to Kodak X-Omat x-ray film at -70° C. for various times. […] In some experiments, concentrated WGA eluates were treated with the antibody anti-PTPase 1B (5 g) prior to assaying phosphatase activity. The antibody was added to 50 μl concentrated eluate and the sample was incubated for 1 h on a tube vortexer at room temperature. Fifty μl of 50% protein A Agarose were centrifuged in a separate tube at 14,000 g for 30 sec. The supernatant was removed, and at the end of 1 h, the WGA eluate was introduced to the agarose precipitate and vortexing was continued for an additional 30 min. As a control, WGA eluates that were not treated with antibody were also introduced to the gels. […]

[2] = target: T1, human A1 adenosine receptor (Homo sapiens, UniProt P30542); assay: Binding constants against cloned and expressed human adenosine receptor subtypes (A1); conditions: read-out: Binding constant (KD) A1
T1 construct: expressed in transfected cells
T1 sequence (P30542 1-326): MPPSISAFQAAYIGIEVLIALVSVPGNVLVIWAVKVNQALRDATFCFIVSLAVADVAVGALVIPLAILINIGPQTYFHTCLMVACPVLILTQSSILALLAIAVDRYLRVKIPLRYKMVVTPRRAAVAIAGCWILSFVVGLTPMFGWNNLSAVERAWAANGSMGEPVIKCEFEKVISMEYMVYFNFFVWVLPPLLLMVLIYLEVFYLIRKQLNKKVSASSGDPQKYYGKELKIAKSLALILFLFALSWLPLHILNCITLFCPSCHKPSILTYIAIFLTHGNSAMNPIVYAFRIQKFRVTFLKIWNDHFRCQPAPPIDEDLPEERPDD

Row | Compound | PTPase bands in in-gel assay [1] | Kd [2] [µM]
1 | sodium vanadate | Bands disappeared | –
2 | CCCn1c(=O)[nH]c(=O)c2[nH]cnc21 [Enprofylline, 3-n-propylxanthine] | – | 156
